Results published in ChEMBL document CHEMBL1201862, “PubChem BioAssay data set” (2004).
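Grown in 96-well plates, cells were treated for 48 hours with each compound at five concentrations. Insufficient inhibition: endpoint recorded as highest concentration tested. Abbreviation: GI50, concentration required for 50% inhibition of growth.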 Active and inactive are the calls of the source. Rule as the data show it: active = GI50 up to about 1.1 µM and inactive = higher. Where a SMILES comes first, the peptide text is derived from it. [ ]: non-standard residue; d: D form. The star is where a group is joined. ξ: configuration not given here. ξPhe(4-NO2) = NC(Cc1ccc([N+](=O)[O-])cc1)C(=O)O; Boc = CC(C)(C)OC(=O)*

Assays:
Assay in all cases: NCI tumour cell line growth inhibition, 48 h
BT-549 = tested on: BT-549
XF498 = tested on: XF498
KM-20L2 = tested on: KM-20L2
DMS-114 = tested on: DMS-114
RXF 631 = tested on: RXF 631
M19-MEL = tested on: M19-MEL
HOP-18 = tested on: HOP-18
DLD-1 = tested on: DLD-1
SNB-78 = tested on: SNB-78

SMILES	GI50 (BT-549)	GI50 (KM-20L2)	GI50 (DMS-114)	GI50 (M19-MEL)	GI50 (DLD-1)	GI50 (SNB-78)	further results
CCCCCCCCCCCCCCCCCCNc1ccn(C2OC(CO)C(O)C2O)c(=O)n1 (configuration not stated)	> 100 µM (inactive)	–	–	–	–	–	–
OC(c1ccc(F)cc1)C(F)(F)c1nc(-c2ccccc2)no1 (configuration not stated)	17.8 µM (inactive)	–	–	–	–	–	–
COc1ccc2nc3cc(Cl)ccc3c(NCCCN3CCN(CCCNc4ccc5nnn6c7ccccc7c(=O)c4c56)CC3)c2c1	5.24 µM (inactive)	–	–	–	–	–	–
CC(C)N1CC2CC(CN(C(=O)c3ccccc3)C2)C1.[O-][Cl+3]([O-])([O-])O	–	> 100 µM (inactive)	> 100 µM (inactive)	> 100 µM (inactive)	–	–	GI50 (XF498): > 100 µM (inactive); GI50 (RXF 631): > 100 µM (inactive); GI50 (HOP-18): > 100 µM (inactive)
C1CCOC2(CCC3(CC2)OCCCCO3)OC1	–	> 100 µM (inactive)	> 100 µM (inactive)	> 100 µM (inactive)	> 100 µM (inactive)	> 100 µM (inactive)	GI50 (HOP-18): > 100 µM (inactive)
COC(=O)c1ccccc1N1C(=O)Cc2ccccc2C1=O	–	> 100 µM (inactive)	> 100 µM (inactive)	> 100 µM (inactive)	–	> 100 µM (inactive)	–
S=C=NCc1ccccc1 [BENZYL ISOTHIOCYANATE]	2.32 µM (inactive)	–	–	–	–	–	–
CCCCCC(=O)Nc1[nH]nnc1C#N	> 100 µM (inactive)	–	–	–	–	–	–
CC(=O)O[C@]1(C)OC(=O)[C@@H](CC(C)C)N1[N+](=O)[O-]	–	> 100 µM (inactive)	> 100 µM (inactive)	> 100 µM (inactive)	> 100 µM (inactive)	> 100 µM (inactive)	GI50 (XF498): < 0.01 µM (active); GI50 (HOP-18): > 100 µM (inactive)
Cc1cc(C)c(-n2c(C)c(C)c(C#N)c2N)c(C)c1	34.8 µM (inactive)	–	–	–	–	–	–
C#CCCCC(=O)N(C(=O)C[S+]([O-])CC)c1ccccc1 (configuration not stated)	> 100 µM (inactive)	–	–	–	–	–	–
COc1ccc(C2S/C(=C\c3cccc([N+](=O)[O-])c3)C(=O)N2NC(=O)Cc2ccccc2)cc1 (configuration not stated)	–	–	> 100 µM (inactive)	> 100 µM (inactive)	> 100 µM (inactive)	–	GI50 (HOP-18): > 100 µM (inactive)
CC(C)(C)OC[C@H](O)CC#N	> 100 µM (inactive)	–	–	–	–	–	–
COc1cc2c(cc1OC)C(=O)/C(=C/c1cc(Cl)cc(Cl)c1)C2	7.26 µM (inactive)	–	–	–	–	–	–
O=c1c2ccccc2oc2nc3n(c(=O)c12)CCCS3	> 100 µM (inactive)	–	–	–	–	–	–
COC(=O)C1=C(C(=O)OC)C2C=CC1C1C(Cl)=C(Cl)C21 (configuration not stated)	–	> 100 µM (inactive)	> 100 µM (inactive)	> 100 µM (inactive)	> 100 µM (inactive)	–	GI50 (RXF 631): > 100 µM (inactive); GI50 (HOP-18): > 100 µM (inactive)
NC(=O)c1nnsc1N/N=C/c1ccc([N+](=O)[O-])cc1	19.7 µM (inactive)	–	–	–	–	–	–
CN(C)c1ccc(/C=N\NC(=O)c2ccccc2Nc2ccccc2C(=O)N/N=C/c2ccc(N(C)C)cc2)cc1	> 100 µM (inactive)	–	–	–	–	–	–
CCOC(=O)n1c2ccccc2c(=O)n1CCO	> 100 µM (inactive)	–	–	–	–	–	–
Oc1ccc2c(c1)-c1c(c3cc(O)ccc3n1CCN1CCOCC1)CC2	14.5 µM (inactive)	–	–	–	–	–	–
COc1cc(/C=C/C(=O)c2sc(Nc3ccccc3)nc2C)ccc1O	–	> 100 µM (inactive)	44.6 µM (inactive)	> 100 µM (inactive)	37.5 µM (inactive)	> 100 µM (inactive)	GI50 (HOP-18): > 100 µM (inactive)

SMILES	GI50 (BT-549)	GI50 (KM-20L2)	GI50 (DMS-114)	GI50 (M19-MEL)	GI50 (DLD-1)	GI50 (SNB-78)	further results
Cc1c(/N=N/c2ccc(Cl)cc2)c(-c2ccccc2)n(C2OC(CO)C(O)C(O)C2O)c(=S)c1C#N (configuration not stated)	16 µM (inactive)	–	–	–	–	–	–
COc1ccc(CNc2ccn(C3OC(CO)C(O)C3O)c(=O)n2)cc1 (configuration not stated)	62.5 µM (inactive)	–	–	–	–	–	–
CCOP(=O)(OCC)C(NC(=O)C(C(F)(F)F)C(F)(F)F)c1ccccc1 (configuration not stated)	> 10 µM (inactive)	–	–	–	–	–	–
COc1c(C(=O)O)oc2c(OC)cccc12	–	–	> 100 µM (inactive)	> 100 µM (inactive)	–	> 100 µM (inactive)	GI50 (HOP-18): > 100 µM (inactive)
COC(=O)/C=C1/OC(c2ccc(C)cc2C)=CC1=O	16.3 µM (inactive)	–	–	–	–	–	–
O=C(Nc1ccccc1)Oc1ccc(C(=S)Nc2ccc(Br)cc2)cc1	12.8 µM (inactive)	–	–	–	–	–	–
O=C(Nc1ccccc1)Nn1c(-c2cccs2)nc2ccc(I)cc2c1=O	10.5 µM (inactive)	–	–	–	–	–	–
Cn1c(-c2ccccc2)cc2c3ccsc3c3ccsc3c21	> 100 µM (inactive)	–	–	–	–	–	–
O=C1C[C@@H](Sc2ccccc2)C2(OCCO2)C2ON3CCCC[C@H]3[C@H]12 (some centres not stated)	5.81 µM (inactive)	–	–	–	–	–	–
COc1ccc(C2Cc3cc(OC)c(OC)c(OC)c3C2)cc1 (configuration not stated)	–	49.8 µM (inactive)	27.8 µM (inactive)	41.9 µM (inactive)	44.7 µM (inactive)	72.6 µM (inactive)	GI50 (XF498): 11.3 µM (inactive); GI50 (HOP-18): 72.3 µM (inactive)
Cn1c(-c2ccc(C=O)o2)ccc1-c1ccc(C=O)o1	55.8 µM (inactive)	–	–	–	–	–	–
N=c1oc2c(Cl)cc(Cl)cc2cc1C(=O)Nc1cccc2ccccc12	30.1 µM (inactive)	–	–	–	–	–	–
CC(C)(C)OC(=O)NCC(=O)N1CCN(C(=O)CNC(=O)OC(C)(C)C)CC1	> 100 µM (inactive)	–	–	–	–	–	–
CCNC(=O)CNC(=O)C(Cc1ccc([N+](=O)[O-])cc1)NC(=O)OC(C)(C)C (configuration not stated) (Boc-[ξPhe(4-NO2)]-Gly-NHEt)	> 100 µM (inactive)	–	–	–	–	–	–
COc1ccc(C(=O)C(C(=O)C(=O)Nc2nccs2)c2ccc(OC)cc2)cc1 (configuration not stated)	–	> 100 µM (inactive)	> 100 µM (inactive)	–	> 100 µM (inactive)	> 100 µM (inactive)	GI50 (XF498): > 100 µM (inactive); GI50 (HOP-18): > 100 µM (inactive)
CC1C=CC(C)C2(O)C(=O)NC(O)C12 (configuration not stated)	–	> 100 µM (inactive)	> 100 µM (inactive)	> 100 µM (inactive)	> 100 µM (inactive)	> 100 µM (inactive)	GI50 (RXF 631): > 100 µM (inactive); GI50 (HOP-18): > 100 µM (inactive)
CC1=CCCC2C1(C)CCC(C)C2(C)Cc1cc(O)ccc1O (configuration not stated)	5.22 µM (inactive)	10.8 µM (inactive)	4.2 µM (inactive)	5.57 µM (inactive)	6.34 µM (inactive)	2.59 µM (inactive)	GI50 (XF498): 7.23 µM (inactive); GI50 (HOP-18): 19.2 µM (inactive)
NC(CCC(=O)O)(CCC(=O)O)CCC(=O)O	> 100 µM (inactive)	–	–	–	–	–	–
CC1=C(/C(C)=N/NC(=O)C(N)=O)Sc2ccccc2N1	–	> 100 µM (inactive)	> 100 µM (inactive)	> 100 µM (inactive)	> 100 µM (inactive)	> 100 µM (inactive)	GI50 (XF498): > 100 µM (inactive); GI50 (HOP-18): > 100 µM (inactive)
COc1ccccc1N1CCN(CCCCNC(=O)c2ccc([N+](=O)[O-])o2)CC1	4.19 µM (inactive)	–	–	–	–	–	–
COc1cc2cc(OC)c3cc4c(cc3c2c(OC)c1OC)OCO4	–	11.6 µM (inactive)	35.7 µM (inactive)	20.8 µM (inactive)	18.1 µM (inactive)	50.2 µM (inactive)	GI50 (RXF 631): 32.5 µM (inactive); GI50 (HOP-18): 67.6 µM (inactive)

SMILES	GI50 (BT-549)	GI50 (KM-20L2)	GI50 (DMS-114)	GI50 (M19-MEL)	GI50 (DLD-1)	GI50 (SNB-78)	further results
O=C(O)c1ccccn1 [2-PICOLINIC ACID]	> 100 µM (inactive)	–	–	–	–	–	–
CC(=O)Nc1ccc(S(=O)(=O)[N-]C2C(=O)c3ccccc3C(=O)C2[n+]2ccccc2)cc1 (configuration not stated)	3.02 µM (inactive)	–	–	–	–	–	–
C#CCOC(=O)c1ccc(OC(C)=O)cc1	> 100 µM (inactive)	–	–	–	–	–	–
CCOC(=O)c1cc2nc3ccccc3c(=O)n2c2ccccc12	> 10 µM (inactive)	–	–	–	–	–	–
O=P1(NCCCl)OCCCN1CCCl (configuration not stated) [IFOSFAMIDE]	> 500 µM (inactive)	385 µM (inactive)	399 µM (inactive)	395 µM (inactive)	380 µM (inactive)	384 µM (inactive)	GI50 (XF498): 381 µM (inactive); GI50 (HOP-18): 104 µM (inactive)
Nc1ccc(Cc2ccc(N)c(C(=O)O)c2)cc1C(=O)O	> 100 µM (inactive)	–	–	–	–	–	–
COc1cc2c(cc1OC)CC(N=[N+]=[N-])c1cc(OC)c(OC)cc1/C=C\2 (configuration not stated)	0.826 µM (active)	–	–	–	–	–	–
COc1ccc2nc3ccccc3c(NCCCN(C)CCCl)c2c1	1.22 µM (inactive)	0.17 µM (active)	0.311 µM (active)	0.353 µM (active)	0.233 µM (active)	0.156 µM (active)	GI50 (XF498): 0.212 µM (active); GI50 (RXF 631): 0.23 µM (active)
NC1=NNC2(C(N)=N1)c1ccccc1-c1ccccc12	> 10 µM (inactive)	–	–	–	–	–	–
CCOc1ccc(/N=C\c2cc(OC)c(OC)c(OC)c2)cc1	–	> 100 µM (inactive)	> 100 µM (inactive)	> 100 µM (inactive)	> 100 µM (inactive)	> 100 µM (inactive)	GI50 (XF498): > 100 µM (inactive); GI50 (HOP-18): > 100 µM (inactive)
O=C(c1ccc(Cl)cc1)c1ccc(OCCCCCCCCCCOc2ccc(C(=O)c3ccc(Cl)cc3)cc2)cc1	–	> 100 µM (inactive)	> 100 µM (inactive)	–	> 100 µM (inactive)	> 100 µM (inactive)	GI50 (RXF 631): > 100 µM (inactive)
NC(CS)C(=O)NCCNc1ccc(NCCNC(=O)C(N)CS)c2c1C(=O)c1c(O)ccc(O)c1C2=O (configuration not stated)	0.327 µM (active)	0.0618 µM (active)	0.00143 µM (active)	0.0318 µM (active)	0.121 µM (active)	0.214 µM (active)	GI50 (XF498): 0.0138 µM (active); GI50 (HOP-18): 0.439 µM (active)
CC(=O)N1N=C(c2ccccc2Nc2ccccc2C2=NN(C(C)=O)C(c3ccccc3)O2)OC1c1ccccc1 (configuration not stated)	87.5 µM (inactive)	–	–	–	–	–	–
CC1(C)OC(=O)C(=C2CC(c3ccccc3)c3ccccc32)C(=O)O1 (configuration not stated)	–	> 100 µM (inactive)	> 100 µM (inactive)	> 100 µM (inactive)	> 100 µM (inactive)	> 100 µM (inactive)	GI50 (RXF 631): > 100 µM (inactive); GI50 (HOP-18): > 100 µM (inactive)
[O-][S+]1Nc2cccc(C(F)(F)F)c2S1 (configuration not stated)	–	29.9 µM (inactive)	20.1 µM (inactive)	66.1 µM (inactive)	34.4 µM (inactive)	31.2 µM (inactive)	GI50 (XF498): 21.1 µM (inactive); GI50 (HOP-18): 72.4 µM (inactive)
CC1=C(C(=O)Nc2cc(F)c(F)cc2F)C(c2ccc3c(c2)OCO3)C(C(=O)Nc2cc(F)c(F)cc2F)=C(C)N1	–	22.3 µM (inactive)	17.7 µM (inactive)	20.7 µM (inactive)	18.9 µM (inactive)	17.2 µM (inactive)	GI50 (XF498): 6.34 µM (inactive)
COC(=O)[C@H](Cc1ccccc1)NC(=O)N1CCN(C(=O)N[C@@H](Cc2ccccc2)C(=O)OC)CCN(C(=O)N[C@@H](Cc2ccccc2)C(=O)OC)CC1	> 100 µM (inactive)	–	–	–	–	–	–
NC(Cc1c[nH]c2ccccc12)P(=O)(O)O (configuration not stated)	> 100 µM (inactive)	–	–	–	–	–	–
CCOC(=O)CN1C(=O)c2c(c(C)n(-c3ccccc3)c2C)C1=O	> 100 µM (inactive)	–	–	–	–	–	–
CCc1n[nH]c(=O)[nH]1	> 100 µM (inactive)	–	–	–	–	–	–
COc1ccc2c(c1)c1nn(CCN(C)C)c3ccc4c(=O)n(CCN(C)C)c(=O)n2c4c13	0.946 µM (active)	–	–	–	–	–	–
